Among the data in ChEMBL document CHEMBL5137035 (Eur J Med Chem, 2022) are inhibition, IC50 and Activity values, retold here.

The target in data set [1] is T1, Dihydroorotate dehydrogenase (quinone), mitochondrial (Homo sapiens, UniProt Q02127). The data set can be described thus: Inhibition of human N-terminal SUMO-tagged DHODH expressed in Escherichia coli BL21(DE3) at 1 uM using dihydroorotate as substrate by DCIP based microplate reader analysis relative to control.
Data set [2] addresses T1, Dihydroorotate dehydrogenase (quinone), mitochondrial. The data set can be described thus: Inhibition of human N-terminal SUMO-tagged DHODH expressed in Escherichia coli BL21(DE3) at 100 nM using dihydroorotate as substrate by DCIP based microplate reader analysis relative to control.
For a further data set, the system named is Raji. Kind of data set: Antiproliferative activity against human Raji cells assessed as cell growth inhibition measured after 96 hrs by MTT assay. The class given is functional, cell-based.
Data set [3] concerns the target T1, Dihydroorotate dehydrogenase (quinone), mitochondrial. Kind of data set: Inhibition of human N-terminal SUMO-tagged DHODH expressed in Escherichia coli BL21(DE3) using dihydroorotate substrate by DCIP based microplate reader analysis.
Data set [4] is described as follows: Acute toxicity in BALB/c mouse assessed as decrease in body weight at 300 mg/kg, po measured for 14 days. The data set is classed as organism-based. As to conditions: in vivo, 336 h, time 14 day.
Data set [5] can be described thus: Cytotoxicity against human HCoEpiC cells expressing human DHODH assessed as reduction in cell viability measured after 96 hrs by MTT assay. The data set is classed as toxicity, cell-based. A general note: Formazan colour is commonly taken as a measure of viable cells.
The nature of data set [6]: Cytotoxicity against human HL7702 cells expressing human DHODH assessed as reduction in cell viability measured after 96 hrs by MTT assay. The data set is classed as toxicity, cell-based. As to conditions: HL7702 (L02) cells expressing human DHODH.
Data set [7] can be described thus: Toxicity in BALB/c mouse assessed as animal death at 300 mg/kg, po measured for 14 days. The class given is organism-based. Conditions: in vivo, 336 h, time 14 day.
The test system of a further data set is A-375. The data set can be described thus: Antiproliferative activity against human A375 cells expressing human DHODH assessed as reduction in cell viability measured after 96 hrs by MTT assay. The class given is functional, cell-based. Conditions: A-375, 96 h.
The subject of a further data set is SUD4. Kind of data set: Antiproliferative activity against human SU-DHL-4 cells expressing human DHODH assessed as reduction in cell viability measured after 96 hrs by MTT assay. The data set is classed as functional, cell-based. Conditions: SU-DHL-4, 96 h.
Another data set has as its system U-937. Kind of data set: Antiproliferative activity against human U-937 cells expressing human DHODH assessed as reduction in cell viability measured after 96 hrs by MTT assay. The data set is classed as functional, cell-based. Conditions: U-937, 96 h.
The test system of the next data set is Kasumi 1. Kind of data set: Antiproliferative activity against human Kasumi 1 cells expressing human DHODH assessed as reduction in cell viability measured after 96 hrs by MTT assay. The data set is classed as functional, cell-based. As to conditions: Kasumi 1, 96 h.
A further data set relates to KG-1. The data set can be described thus: Antiproliferative activity against human KG-1 cells expressing human DHODH assessed as reduction in cell viability measured after 96 hrs by MTT assay. The data set is classed as functional, cell-based. As to conditions: KG-1, 96 h.
In another data set the test system is HCT-116. Kind of data set: Antiproliferative activity against human HCT-116 cells expressing human DHODH assessed as reduction in cell viability measured after 96 hrs by MTT assay. The data set is classed as functional, cell-based. As to conditions: HCT-116, 96 h.

The structures appear in SMILES notation.

For orientation: inhibition means the drop in the measured response relative to a control, in per cent. Low values mean a weak effect, high ones a strong effect. What is called IC50 is the concentration that gives 50% inhibition.

T1 sequence (Q02127 whole entry): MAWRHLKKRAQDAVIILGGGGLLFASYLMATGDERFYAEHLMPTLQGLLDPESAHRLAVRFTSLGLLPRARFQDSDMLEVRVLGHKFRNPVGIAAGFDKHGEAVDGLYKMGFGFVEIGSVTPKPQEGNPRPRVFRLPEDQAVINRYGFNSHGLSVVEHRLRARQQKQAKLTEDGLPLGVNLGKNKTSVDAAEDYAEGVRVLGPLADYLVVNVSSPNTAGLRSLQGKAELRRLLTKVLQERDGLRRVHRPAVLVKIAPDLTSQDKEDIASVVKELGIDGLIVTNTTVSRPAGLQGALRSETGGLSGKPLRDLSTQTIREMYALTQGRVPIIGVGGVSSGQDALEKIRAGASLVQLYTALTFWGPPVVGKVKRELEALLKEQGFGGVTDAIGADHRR

As for `C=CCOc1cc(NC(=O)/C(C#N)=C(/C)O)c(F)cc1-c1cccc(OC)c1`, the inhibition in data set [1] is 92.5%; in data set [2], 58.5%.
Regarding `COc1cccc(-c2cc(F)c(Nc3ncccc3C(=O)O)c(F)c2)c1` [ASLAN-003], the IC50 in the data set with Raji turned out to be 270 nM.
In the case of `COc1cccc(-c2ccc(NC(=O)/C(C#N)=C(/C)O)cc2OC)c1`, the inhibition was found to be 89.2% in data set [1] and 48.4% in [2].
As for `CCOc1cc(NC(=O)/C(C#N)=C(/C)O)c(F)cc1-c1cccc(OC)c1`, the inhibition was 93.1% in data set [1] and 65.2% in [2]. The half-maximal inhibitory concentration (IC50) in [3] worked out at 41.4 nM.
For the compound `C=C(C)COc1cc(NC(=O)/C(C#N)=C(/C)O)c(F)cc1-c1cccc(OC)c1`, the inhibition in [1] was 92.9%; in data set [2], 58.6%.
For `CCC(C)Oc1cc(NC(=O)/C(C#N)=C(/C)O)c(F)cc1-c1cccc(OC(F)(F)F)c1` (configuration not stated), the inhibition in data set [1] is 99.2%; in data set [2], 92.4%. Also, the half-inhibitory concentration (IC50) in [3] turned out to be 10.9 nM; in the data set with Raji, 130 nM.
Take `COc1cccc(-c2cc(F)c(NC(=O)/C(C#N)=C(/C)O)cc2OCC(C)C)c1`: the inhibition in [1] worked out at 96.2%; in [2], 77.6%. The same compound registered an IC50 in data set [3] of 30.1 nM.
On to `CCC(C)Oc1cc(NC(=O)/C(C#N)=C(/C)O)c(F)cc1-c1ccc(OC)cc1` (configuration not stated), for which the inhibition in [1] was determined as 94.7%; in [2], 72.1%. Also, the IC50 in data set [3] turned out to be 39.8 nM.
Take `CCC(C)Oc1cc(NC(=O)/C(C#N)=C(/C)O)c(F)cc1-c1cc(F)cc(F)c1` (configuration not stated): the inhibition was 98.8% in data set [1] and 85.1% in data set [2]. Moreover, in [3], the IC50 was determined as 22.6 nM.
On to `CCC(C)Oc1cc(NC(=O)/C(C#N)=C(/C)O)c(F)cc1-c1ccc(C(F)(F)F)cc1` (configuration not stated), for which the inhibition was 77.2% in data set [1] and 34.1% in data set [2].
As to `CCC(C)Oc1cc(NC(=O)/C(C#N)=C(/C)O)c(F)cc1-c1ccc2ccccc2c1` (configuration not stated), the inhibition was 99.8% in data set [1] and 95.6% in [2]. The Activity entry in data set [4] and in [7] was “Toxic” in each case. Also, the IC50 at 96 h in data set [5] stood at 4710 nM; in [6], 6480 nM. Moreover, the IC50 with A-375 was found to be 270 nM; in the data set on SUD4, 160 nM; in the data set on U-937, 200 nM; with Kasumi 1 it was 130 nM; in the data set with KG-1, 620 nM; in [3] it was 6.6 nM. For the same compound, the results for the half-maximal inhibitory concentration (IC50) with Raji and in the data set with HCT-116 were 18.8 nM and 150 nM, respectively.
In the case of `CCC(C)Oc1cc(NC(=O)/C(C#N)=C(/C)O)c(F)cc1-c1ccc(Cl)cc1` (configuration not stated), the inhibition in data set [1] was 95.4%; in [2], 68.5%. In data set [3], this compound displayed a half-inhibitory concentration (IC50) of 33.3 nM.
Take `CCC(C)Oc1cc(NC(=O)/C(C#N)=C(/C)O)c(F)cc1-c1ccccc1` (configuration not stated): the inhibition in data set [1] is 96.9%; in data set [2], 80.4%. In [3], half-maximal inhibition (IC50) required 28.9 nM.
In the case of `COc1cccc(-c2cc(F)c(NC(=O)/C(C#N)=C(/C)O)cc2OC)c1`, the inhibition in data set [1] was determined as 91.8%; in data set [2] it was 57.7%. In addition, in [3], inhibition was half-maximal at 52.1 nM (IC50).
Take `CCCC(C)Oc1cc(NC(=O)/C(C#N)=C(/C)O)c(F)cc1-c1cccc(OC)c1` (configuration not stated): the inhibition in data set [1] came out at 98.4%; in data set [2], 86.5%. The compound also gave a concentration for half-maximal inhibition (IC50) in data set [3] of 14.4 nM.
For `COc1cccc(-c2cc(F)c(NC(=O)/C(C#N)=C(/C)O)cc2OC(C)C)c1`, the results for the inhibition in data set [1] and in data set [2] were 96.6% and 87.7%, respectively. The IC50 in data set [3] was 13.9 nM; with Raji, 980 nM.
For `CCC(C)Oc1cc(NC(=O)/C(C#N)=C(/C)O)c(F)cc1-c1cc2ccccc2o1` (configuration not stated), the inhibition in [1] is 97.4%; in [2], 89.9%. In data set [3], this compound came in with an IC50 of 12.9 nM.
In the same order, the values of `CCC(C)Oc1cc(NC(=O)/C(C#N)=C(/C)O)c(F)cc1-c1ccc2c(c1)OCO2` (configuration not stated) are 96.9%, 83.1% and 28.8 nM.
Take `CCC(C)Oc1cc(NC(=O)/C(C#N)=C(/C)O)c(F)cc1-c1ccccc1C` (configuration not stated): the inhibition in data set [1] was 96.6%; in data set [2], 78.6%. The half-inhibitory concentration (IC50) in data set [3] was 31 nM.
`CCC(C)Oc1cc(NC(=O)/C(C#N)=C(/C)O)c(F)cc1-c1ccccc1F` (configuration not stated): the inhibition in data set [1] is 97.3%; in [2], 82.9%. The compound also came in with an IC50 in data set [3] of 27.3 nM.
For `CCC(C)Oc1cc(NC(=O)/C(C#N)=C(/C)O)c(F)cc1-c1cc(Cl)ccc1C` (configuration not stated), the inhibition stood at 85.5% in data set [1] and 47.2% in data set [2].
`CCC(CC)Oc1cc(NC(=O)/C(C#N)=C(/C)O)c(F)cc1-c1cccc(OC)c1`: the inhibition was 98.1% in data set [1] and 84.6% in data set [2]. Also, the IC50 in data set [3] was determined as 16.4 nM.
On the same counts, the results for `CCC(C)Oc1cc(NC(=O)/C(C#N)=C(/C)O)c(F)cc1-c1cccc(Cl)c1C` (configuration not stated) are 98%, 85.3% and 22.2 nM.
Regarding `CCCOc1cc(NC(=O)/C(C#N)=C(/C)O)c(F)cc1-c1cccc(OC)c1`, the inhibition in [1] was determined as 93.6%; in data set [2] it was 68.2%. The compound further displayed an IC50 in data set [3] of 34.6 nM.
`CCC(C)Oc1cc(NC(=O)/C(C#N)=C(/C)O)c(F)cc1-c1ccc(F)cc1` (configuration not stated): the inhibition worked out at 96.1% in data set [1] and 72.5% in [2]. Moreover, the IC50 in [3] came out at 37.8 nM.
`CCC(C)Oc1cc(NC(=O)/C(C#N)=C(/C)O)c(F)cc1-c1cccc(OC)c1` (configuration not stated): the inhibition in data set [1] stood at 99.2%; in data set [2], 91.2%. The IC50 in data set [3] came out at 9.2 nM; with Raji it was 610 nM.
As to `CCC(C)Oc1cc(NC(=O)/C(C#N)=C(/C)O)c(F)cc1-c1cccc(F)c1` (configuration not stated), the values for the inhibition in [1] and in [2] were 97.2% and 83.6%, respectively. In addition, in data set [3], half-maximal inhibition (IC50) was put at 26.8 nM.
Consider `CCC(C)Oc1cc(NC(=O)/C(C#N)=C(/C)O)c(F)cc1-c1cccc(Cl)c1` (configuration not stated), for which the inhibition in data set [1] was found to be 98.9%; in data set [2], 87.5%. This compound also yielded an IC50 in data set [3] of 20.1 nM.
As to `CCC(C)Oc1cc(NC(=O)/C(C#N)=C(/C)O)c(F)cc1-c1ccc(F)nc1` (configuration not stated), the inhibition turned out to be 89.7% in data set [1] and 52.3% in [2].
As to `C/C(O)=C(\C#N)C(=O)Nc1ccc(C(F)(F)F)cc1`, the inhibition in [1] is 71.2%.
`CCC(C)Oc1cc(NC(=O)/C(C#N)=C(/C)O)c(F)cc1-c1cccc(F)c1C` (configuration not stated): the inhibition came out at 97.8% in data set [1] and 82.5% in data set [2]. Besides, in [3], the IC50 was determined as 26.1 nM.
Take `COc1cccc(-c2cc(F)c(NC(=O)/C(C#N)=C(/C)O)cc2OCC2CCCCC2)c1`: the results for the inhibition in [1] and in data set [2] were 93.6% and 64%, respectively. Also, the half-maximal inhibitory concentration (IC50) in data set [3] came to 43.1 nM.
Turning to `CCC(C)Oc1cc(NC(=O)/C(C#N)=C(/C)O)c(F)cc1-c1ccnc(F)c1` (configuration not stated), the inhibition in data set [1] was found to be 98.5%; in data set [2], 87.7%. In data set [3], this compound had a half-inhibitory concentration (IC50) of 20.3 nM.
For `CCC(C)Oc1cc(NC(=O)/C(C#N)=C(/C)O)c(F)cc1-c1ccccc1Cl` (configuration not stated), the inhibition in data set [1] came out at 98.8%; in data set [2], 86.3%. In data set [3], this compound showed a 50% inhibitory concentration (IC50) of 21.8 nM.
As to `CCC(C)Oc1cc(NC(=O)/C(C#N)=C(/C)O)c(F)cc1-c1ccc(F)c(F)c1` (configuration not stated), the inhibition in [1] worked out at 97.5%; in [2], 80.1%. Further, in data set [3], half-maximal inhibition (IC50) required 30.4 nM.
Consider `COc1cccc(-c2cc(F)c(NC(=O)/C(C#N)=C(/C)O)cc2OCc2c(F)cccc2Cl)c1`, for which the inhibition in data set [1] stood at 79.7%; in data set [2], 40.3%.
Regarding `COc1cccc(-c2cc(F)c(NC(=O)/C(C#N)=C(/C)O)cc2OCc2ccccc2F)c1`, the inhibition amounted to 89.8% in data set [1] and 48.3% in data set [2].
On to `CCC(C)Oc1cc(NC(=O)/C(C#N)=C(/C)O)c(F)cc1-c1cccc2ccccc12` (configuration not stated), for which the inhibition in [1] turned out to be 99.7%; in [2] it was 95%. Also, the results for the IC50 (in data set [3]; in the data set on Raji) were 9.8 nM and 215 nM, respectively.
